What was measured:
hERG = hERG (Homo sapiens, UniProt Q12809); experiment: hERG activity
[1] = tested on: human colon cancer cell line HCT116; experiment: Anti-proliferative activity (Alamar Blue assay); type: cell-based; details: HCT-116
Experimental: The anti-proliferative activities of compounds of the invention can be determined by measuring the ability of the compounds to inhibition of cell growth in a number of cell lines such as the human colon cancer cell line HCT116. Inhibition of cell growth is measured using the Alamar Blue assay (Nociari, M. M, Shalev, A., Benias, P., Russo, C. Journal of Immunological Methods 1998, 213, 157-167). The method is based on the ability of viable cells to reduce resazurin to its fluorescent product resorufin. For each proliferation assay cells are plated onto 96 well plates and allowed to recover for 16 hours prior to the addition of inhibitor compounds for a further 72 hours. At the end of the incubation period 10% (v/v) Alamar Blue is added and incubated for a further 6 hours prior to determination of fluorescent product at […]. In the case of the non-proliferating cell assay cells are maintained at confluence for 96 hour prior to the addition of inhibitor compounds for a further 72 hours. The number of viable cells is determined by Alamar Blue assay as before. Cell lines can be obtained from the ECACC (European Collection of cell Cultures).

[2] = biological target: T1, human Hsp90α N-terminal domain (Homo sapiens, UniProt P07900); experiment: Isothermal titration calorimetry (ITC); type: binding
T1 construct: purification of the Human Hsp90α N-terminal domain were performed according to published methods; made in house
Experimental: The ability of the compounds of the invention to bind to human Hsp90 proteins was determined using isothermal titration calorimetry. Isothermal titration calorimetry (ITC) experiments were performed with a VP-ITC titration calorimeter (Microcal Inc., Northampton, Mass., USA). Cloning, expression, and purification of the Human Hsp90α N-terminal domain were performed according to published methods (Jez, J. M. et al, Chem. […] All solutions were filtered and degassed prior to a titration being carried out. The enthalpy change resulting from each injection of ligand was obtained through integration of the calorimetric signal. Data were analysed using Origin 7.0 (Microcal Software Inc., Northampton, Mass.). Heats of dilution were estimated using the final injections of each individual titration and subtracted before data fitting. […] For weakly binding compounds a low c-value ITC method was used (Turnbull […]. Am. Chem. Soc. 2003 Dec. 3; 125(48):14859-66) in which the protein was present at 10-20 μM in the calorimetric cell and the compound concentration was 1-20 mM in the injection syringe. In this type of experiment the stoichiometry parameter (N) was locked at 1 for data fitting. […] In rare cases where compound solubility was limiting, the compound solution was placed in the calorimetric cell and titrated with protein from the injection syringe, maintaining a c-value between 5 and 1000. […]

Sequence of hERG (Q12809 whole entry): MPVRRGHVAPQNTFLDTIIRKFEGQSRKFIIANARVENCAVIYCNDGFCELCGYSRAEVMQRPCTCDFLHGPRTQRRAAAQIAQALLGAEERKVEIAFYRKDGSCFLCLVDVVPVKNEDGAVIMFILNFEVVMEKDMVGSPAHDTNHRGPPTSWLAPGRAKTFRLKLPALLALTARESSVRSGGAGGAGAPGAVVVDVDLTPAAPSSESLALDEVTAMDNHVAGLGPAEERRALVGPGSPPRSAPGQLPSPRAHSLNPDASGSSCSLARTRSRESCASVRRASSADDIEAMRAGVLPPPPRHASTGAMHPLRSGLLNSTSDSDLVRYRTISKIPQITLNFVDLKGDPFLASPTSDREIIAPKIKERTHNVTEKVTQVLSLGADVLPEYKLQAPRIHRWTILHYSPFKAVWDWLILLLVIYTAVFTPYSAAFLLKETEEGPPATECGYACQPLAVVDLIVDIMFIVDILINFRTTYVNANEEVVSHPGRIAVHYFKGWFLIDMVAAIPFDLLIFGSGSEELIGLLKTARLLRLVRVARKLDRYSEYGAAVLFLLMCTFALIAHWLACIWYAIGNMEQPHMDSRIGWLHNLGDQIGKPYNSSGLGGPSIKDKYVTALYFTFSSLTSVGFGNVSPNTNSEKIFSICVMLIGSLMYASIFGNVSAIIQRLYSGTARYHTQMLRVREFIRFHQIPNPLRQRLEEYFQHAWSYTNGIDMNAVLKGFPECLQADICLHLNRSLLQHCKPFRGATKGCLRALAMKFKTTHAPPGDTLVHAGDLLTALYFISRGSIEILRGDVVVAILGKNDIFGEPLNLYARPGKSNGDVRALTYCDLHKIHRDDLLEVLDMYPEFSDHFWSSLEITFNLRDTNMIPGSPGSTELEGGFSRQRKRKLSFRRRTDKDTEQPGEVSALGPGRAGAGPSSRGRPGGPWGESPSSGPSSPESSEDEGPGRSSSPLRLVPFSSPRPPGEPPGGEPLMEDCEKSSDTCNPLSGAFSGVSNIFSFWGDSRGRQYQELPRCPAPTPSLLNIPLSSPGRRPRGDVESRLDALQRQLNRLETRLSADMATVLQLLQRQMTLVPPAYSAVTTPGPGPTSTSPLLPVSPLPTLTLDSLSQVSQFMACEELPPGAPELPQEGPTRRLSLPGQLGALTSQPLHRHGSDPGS

- IC50 [1]: < 100 nM
- Kd [2]: < 100 nM
SMILES: CC(C)c1cc(C(=O)N2Cc3ccc(CN4CCN(C)CC4)cc3C2)c(O)cc1O [Compound (1), (2,4-dihydroxy-5-isopropyl-phenyl)-[5-(4-methyl-piperazin-1-ylmethyl)-1,3-dihydro-isoindol-2-yl]-methanone]
- hERG activity (hERG): low hERG activity
- mean IC50 value against hERG relative to the IC50 values of the compound in cellular proliferation assays (hERG): greater than 30 times
- IC50 (hERG; read-out: mean IC50 value against hERG): > 15000 nM

Source: patent publication US9428439B2, “Hydrobenzamide derivatives as inhibitors of Hsp90” (priority 2006, dated 2016)
